The values below come from US20260083750A1, “SMALL MOLECULE INHIBITORS OF KRAS PROTEINS” (MERCK SHARP & DOHME LLC, priority 2022, published 2026).

Some results are limits rather than exact numbers.

One assay deals with NRAS (Homo sapiens, UniProt P01111). In words: SOS-catalyzed nucleotide exchange assay (Procedure A, TR-FRET). The class given is biochemical. The note with it: 60 min preincubation, SOS + GTP, read-out: NRAS GNE IC50. From the text:
(§1) Procedure for SOS-Catalyzed Nucleotide Exchange Assay for KRAS-G12C/D/V, G13D, HRAS, and NRAS (Procedure A)
(§2) Recombinant KRAS-G12C protein used in this assay has an additional triple mutation (C51S/C80L/C118S), whereas KRAS-G12D/V, G13D, HRAS and NRAS are in context of their WT protein sequence background. Specifically, the SOS-catalyzed nucleotide exchange assay utilizes a preformed TR-FRET complex containing a specific biotinylated RAS protein (KRAS-G12C/V/D, G13D, HRAS, NRAS; described above) with Bodipy-GDP, and Terbium-streptavidin. Compounds are preincubated with this complex for 60 minutes. Subsequently, recombinant human SOS protein and unlabeled GTP are added to initiate the exchange reaction. Small molecule inhibitors stabilize the Bodipy-GDP complex whereas the untreated protein rapidly exchanges Bodipy-GDP for unlabeled GTP resulting in reduced TR-FRET signal.
(§3) To assemble the preformed TR-FRET complexes, each biotinylated RAS protein is diluted to 2 μM in an EDTA Buffer (20 mM HEPES pH 7.5, 50 mM sodium chloride, 10 mM EDTA, and 0.01% Tween) and incubated at room temperature for one hour. This mixture is then further diluted to 90 nM in an Assay Buffer (20 mM HEPES pH 7.5, 150 mM sodium chloride, 10 mM magnesium chloride, and 0.005% Tween) containing 15 nM of Terbium-Streptavidin (Invitrogen, catalog #PV3577) and 900 nM of Bodipy-GDP (Invitrogen, catalog #G22360) and incubated at room temperature for six hours. It should be noted that this preformed TR-FRET complex for each of the RAS protein were made ahead of time, aliquoted and stored at −80° C. until the day of the experiment.
(§4) Each test compound (10 mM stock in DMSO) is diluted in DMSO to make a final-10-point, 3-fold dilution and is acoustically dispensed into a 384-well assay plate (Corning, catalog #3820) using an Echo 550 (Labcyte). Each well of the assay plate receives 3 μL of a specific 3× RAS preformed TR-FRET complex and 3 μL of Assay Buffer and is incubated at room temperature for 60 minutes (preincubation time). Each well then receives 3 μL of 3× recombinant human SOS protein and GTP (Sigma, G8877) in Assay Buffer and is incubated at room temperature for 30 minutes (G13D), 60 minutes (G12C/D, H/NRAS) or 90 minutes for G12V. The final reaction in each well of […] consists of 3 mM GTP, specific Ras and SOS proteins in the following concentrations: KRAS-G12C/SOS=3 nM/40 nM, KRAS-G12D/SOS=1 nM/40 nM, KRAS-G12V/SOS=1.25 nM/160 nM, KRAS-G13D/SOS=1.25 nM/0 nM, HRAS & NRAS=1.25 nM/40 nM.
(§5) The time-resolved fluorescence resonance energy transfer (TR-FRET) signal is measured on an Envision (PerkinElmer) plate reader: Excitation filter=340 nm; emission1=495 nm; emission2=520 nm; dichroic mirror=D400/D505; delay time=[…]. The signal of each well is determined as the ratio of the emission at 520 nm to that at 495 nm. Percent effect of each well is determined after normalization to control wells containing DMSO (no effect) or a saturating concentration of inhibitor (max effect). The apparent effect as a function of compound concentration is fit to a four-parameter logistic equation.

The next assay concerns the target HRAS (Homo sapiens, UniProt P01112). Described as above. The class given is biochemical. The note with it: 60 min preincubation, SOS + GTP, read-out: HRAS GNE IC50.
Description: as §1, §2, §3, §4, §5

A further assay addresses T1, KRAS-G13D (Homo sapiens, UniProt P01116, G13D).
T1 construct: N-terminal biotin-acceptor peptide […]
The description is as above. The class given is biochemical. The note with it: 60 min preincubation, GTP, read-out: KRAS G13D GNE IC50.
Description: as §1, §2, §3, §4
(§6) The time-resolved fluorescence resonance energy transfer (TR-FRET) signal is measured on an Envision (PerkinElmer) plate reader: Excitation filter=340 nm; emission1=495 nm; emission2=520 nm; dichroic mirror=D400/D505; delay time=[…]. The signal of each well is determined as the ratio of the emission at 520 nm to that at 495 nm. […] The apparent effect as a function of compound concentration is fit to a four-parameter logistic equation.

Assay [1] concerns the target T2, KRAS-G12C (C51S/C80L/C118S) (Homo sapiens, UniProt P01116, C118S/C51S/C80L/G12C).
T2 construct: N-terminal biotin-acceptor peptide […]
Described as above. The class given is biochemical. The note with it: 60 min preincubation, SOS + GTP, read-out: KRAS G12C GNE IC50.
Description: as §1, §2, §3, §4, §6

A further assay has as its target T3, KRAS-G12V (Homo sapiens, UniProt P01116, G12V).
T3 construct: N-terminal biotin-acceptor peptide […]
Described as above. The class given is biochemical. The note with it: 60 min preincubation, SOS + GTP, read-out: KRAS G12V GNE IC50.
Description: as §1, §2, §3, §4, §6

A further assay has as its target T4, KRAS-G12D (Homo sapiens, UniProt P01116, G12D).
T4 construct: N-terminal biotin-acceptor peptide […]
The description is as above. The note with it: 60 min preincubation, SOS + GTP, read-out: KRAS G12D GNE IC50. The class given is biochemical.
Description: as §1, §2, §3, §4, §6

Assay [2] relates to PANC08.13 cells (homozygous KRAS-G12D activating mutation). In words: Cellular phospho-ERK assay in G12D cell line. The class given is cell-based. The note with it: Homo sapiens, PANC-08-13, 2 hours compound incubation, ratio of p-ERK vs. total ERK, read-out: PANC 0813 pERK IC50. Here is the method: Procedure for Cellular Phospho-ERK Assay in G12D and G12V Cell Lines
PANC08.13 cells (ATCC® CRL-2551™), containing homozygous KRAS-G12D activating mutation, were cultured in growth medium made of RPMI1640-GlutaMAX™—I (ThermoFisher Scientific 61870) containing 15% heat inactivated fetal bovine serum (ThermoFisher Scientific 10091148)). SW620 cells (ATCC® […]), containing homozygous KRAS-G12V activating mutation, were cultured in growth medium that contains RPMI 1640-GlutaMAX™—I (ThermoFisher Scientific 61870) containing 10% heat inactivated fetal bovine serum (ThermoFisher Scientific 10091148).
Cells for the assay were harvested in growth medium after TrypLE (ThermoFisher scientific 12604021) digestion and were seeded in a 384-well collagen coated cell culture plate (Corning 356702) at a density of 10,000-15,000 cells/20 uL/well, and incubated at 37° C., 5% CO2 overnight. The compound (with 10 mM stock concentration) dose-response titrations were prepared [30 μM final ERK detection assay concentration and 1:3 dilutions, 10-point dose response] and appropriate amounts (270 nL) of test compounds were dispensed in a 384-well intermediate plate using an Echo 550 liquid handler. 30 uL/well of RPMI medium 1640-GlutaMAX™—I was added to the intermediate plate and the contents of the intermediate plate (10 uL/well) were then transferred to the 384-well collagen coated cell culture plate, which was incubated at 37° C., 5% CO2 for 2 hours. After removal of medium from the collagen coated cell culture plate, cells were lysed in lysis buffer from Alpha SureFire® Ultra™ Multiplex p-ERK and total ERK assay kit (PerkinElmer MPSU-PTERK) containing Halt™ Protease and Phosphatase inhibitor cocktail (ThermoFisher Scientific 78446) at room temperature with constant shaking at 300 rpm for 30 minutes. The cell lysates were then transferred to an OptiPlate-384 plate (PerkinElmer 6005620), and the phosphorylation of ERK (p-ERK) and total ERK levels were detected by Alpha SureFire® Ultra™ Multiplex p-EEK kit and total ERK assay kit (PerkinElmer MPSU-PTERK) following the manufacturer's protocol. Assay plates were read on a EnVision Multimode Plate Reader (PerkinElmer), and the ratio of p-ERK vs. total ERK in each well was used as the final readout. Dose response curves were analyzed using a 4-parameter logistic model to calculate IC50 values using Spotfire software.

T3 sequence (P01116 with tags, fused parts or gaps isoform P01116-2 G12V): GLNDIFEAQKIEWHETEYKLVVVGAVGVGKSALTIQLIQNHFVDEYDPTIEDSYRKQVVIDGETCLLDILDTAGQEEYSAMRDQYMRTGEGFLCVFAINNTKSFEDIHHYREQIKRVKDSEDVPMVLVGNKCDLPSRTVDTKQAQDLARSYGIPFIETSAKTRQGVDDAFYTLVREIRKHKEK
Sequence of HRAS (P01112 with tags, fused parts or gaps): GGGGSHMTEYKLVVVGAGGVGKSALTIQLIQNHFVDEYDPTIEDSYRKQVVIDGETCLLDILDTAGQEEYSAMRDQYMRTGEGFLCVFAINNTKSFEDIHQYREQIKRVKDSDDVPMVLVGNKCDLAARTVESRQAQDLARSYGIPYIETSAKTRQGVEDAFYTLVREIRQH
T4 sequence (P01116 with tags, fused parts or gaps isoform P01116-2 G12D): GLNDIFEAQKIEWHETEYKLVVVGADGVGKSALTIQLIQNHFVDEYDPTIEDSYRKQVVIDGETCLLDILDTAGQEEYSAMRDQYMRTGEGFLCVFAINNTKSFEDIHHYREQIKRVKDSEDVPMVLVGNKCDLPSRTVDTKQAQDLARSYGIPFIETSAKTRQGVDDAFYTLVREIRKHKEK
T2 sequence (P01116 with tags, fused parts or gaps isoform P01116-2 G12C/C51S/C80L/C118S): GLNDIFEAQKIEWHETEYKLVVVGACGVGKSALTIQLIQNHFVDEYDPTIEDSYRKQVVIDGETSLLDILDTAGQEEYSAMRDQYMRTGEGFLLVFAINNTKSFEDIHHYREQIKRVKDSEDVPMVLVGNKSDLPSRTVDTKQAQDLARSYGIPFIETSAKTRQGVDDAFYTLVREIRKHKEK
T1 sequence (P01116 with tags, fused parts or gaps isoform P01116-2 G13D): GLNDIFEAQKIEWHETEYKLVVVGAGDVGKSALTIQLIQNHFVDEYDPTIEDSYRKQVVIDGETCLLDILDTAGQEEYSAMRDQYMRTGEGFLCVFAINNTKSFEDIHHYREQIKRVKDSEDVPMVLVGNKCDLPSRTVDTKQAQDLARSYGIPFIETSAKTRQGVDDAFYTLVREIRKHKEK
Sequence of NRAS (P01111 with tags, fused parts or gaps): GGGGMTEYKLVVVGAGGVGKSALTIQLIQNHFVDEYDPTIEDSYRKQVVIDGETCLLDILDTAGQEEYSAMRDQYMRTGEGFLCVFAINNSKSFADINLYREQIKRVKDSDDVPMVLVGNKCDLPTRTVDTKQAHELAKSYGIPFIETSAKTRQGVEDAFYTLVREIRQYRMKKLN

As for `N#Cc1c(N)sc2c(F)ccc(-c3c(Cl)cc4c(N5CCCOCC5)nc(OC[C@]5(CO)CC5(F)F)nc4c3F)c12` [Ex. 32, 2-amino-4-(6-chloro-2-(((R)-2,2-difluoro-1-(hydroxymethyl)cyclopropyl)methoxy)-8-fluoro-4-(1,4-oxazepan-4-yl)quinazolin-7-yl)-7-fluorobenzo[b]thiophene-3-carbonitrile], the half-maximal inhibitory concentration (IC50) at NRAS is > 11100 nM; at HRAS it was > 11100 nM; on KRAS-G13D it was 798 nM; in assay [1], 885 nM; at KRAS-G12V, 3440 nM.

Take `Cc1cc(N)nc(-c2c(F)cc3c(N4CC[C@@H]5[C@@H](C#N)[C@@H]5CC4)nc(OC[C@@]45CCCN4C[C@H](F)C5)nc3c2F)c1C(F)(F)F` [Ex. 45, (1R,7S,8S)-4-(7-(6-amino-4-methyl-3-(trifluoromethyl)pyridin-2-yl)-6,8-difluoro-2-(((2R,7aS)-2-fluorotetrahydro-1H-pyrrolizin-7a(5H)-yl)methoxy)quinazolin-4-yl)-4-azabicyclo[5.1.0]octane-8-carbonitrile]: the half-maximal inhibitory concentration (IC50) is > 11100 nM at NRAS; > 11100 nM at HRAS; ≥ 11100 nM at KRAS-G13D; 4470 nM at KRAS-G12D; 1750 nM in assay [1]; 1490 nM at KRAS-G12V.

On to `N#Cc1c(N)sc2c(F)ccc(-c3c(Cl)cc4c(N5CCOCCC5C(F)(F)F)nc(OC[C@@]56CCCN5C[C@H](F)C6)nc4c3F)c12` (stereo partly drawn) [compound 15, 2-amino-4-(6-chloro-8-fluoro-2-(((2R,7aS)-2-fluorotetrahydro-1H-pyrrolizin-7a(5H)-yl)methoxy)-4-(5-(trifluoromethyl)-1,4-oxazepan-4-yl)quinazolin-7-yl)-7-fluorobenzo[b]thio-phene-3-carbonitrile], for which the half-maximal inhibitory concentration (IC50) in assay [2] is 464 nM; at KRAS-G12D, 94 nM; on KRAS-G12V it was 20.1 nM.

Consider `CC1(NC[C@@]2(COc3nc(N4CCCOCC4)c4cc(Cl)c(-c5ccc(F)c6sc(N)c(C#N)c56)c(F)c4n3)CC2(F)F)CC1` [compound 27, 2-amino-4-(6-chloro-2-(((R)-2,2-difluoro-1-(((1-methylcyclopropyl)a-mino)methyl)cyclopro-pyl)methoxy)-8-fluoro-4-(1,4-oxazepan-4-yl)quinazolin-7-yl)-7-fluorobenzo[b]thiophene-3-carbonitrile], for which the half-maximal inhibitory concentration (IC50) is > 11100 nM on NRAS; > 11100 nM on HRAS; 846 nM on KRAS-G13D; 4980 nM at KRAS-G12D; 243 nM in assay [1]; 148 nM at KRAS-G12V.

In the case of `CC1(NC[C@@]2(COc3nc(N4CCCOCC4)c4cc(Cl)c(-c5ccc(F)c6sc(N)c(C#N)c56)c(F)c4n3)CC2(F)F)COC1` [compound 29, 2-amino-4-(6-chloro-2-(((R)-2,2-difluoro-1-(((3-methyloxetan-3-yl)amino)methyl)cyclo-propyl)methoxy)-8-fluoro-4-(1,4-oxazepan-4-yl)quinazolin-7-yl)-7-fluorobenzo[b]thiophene-3-carbonitrile], the IC50 is > 11100 nM on NRAS; > 11100 nM on HRAS; 936 nM at KRAS-G13D; 2360 nM at KRAS-G12D; 390 nM in assay [1]; 273 nM on KRAS-G12V.

In the case of `N#Cc1c(N)sc2c(F)ccc(-c3c(Cl)cc4c(N5CCCOCC5)nc(OC[C@]5(CN6CCOCC6)CC5(F)F)nc4c3F)c12` [compound 31, 2-amino-4-(6-chloro-2-(((R)-2,2-difluoro-1-(morpholinomethyl)cy-clopropyl)methoxy)-8-fluoro-4-(1,4-oxazepan-4-yl)quinazolin-7-yl)-7-fluorobenzo[b]thiophene-3-carbonitrile], the IC50 on NRAS was > 11100 nM; at HRAS it was > 11100 nM; at KRAS-G13D it was 748 nM; on KRAS-G12D it was 2540 nM; in assay [1] it was 1180 nM; on KRAS-G12V it was 152 nM.

As to `N#Cc1c(N)sc2c(F)ccc(-c3c(Br)cc4c(N5CCCOCC5)nc(OC[C@@]56CCCN5C[C@H](F)C6)nc4c3F)c12` [compound 37, 2-amino-4-(6-bromo-8-fluoro-2-(((2R,7aS)-2-fluorotetrahydro-1H-pyrrolizin-7a(5H)-yl)methoxy)-4-(1,4-oxazepan-4-yl)quinazolin-7-yl)-7-fluorobenzo[b]thiophene-3-carbonitrile], the IC50 in assay [2] stood at 48.9 nM; on KRAS-G12D it was 8.27 nM; on KRAS-G12V, 3.54 nM.

As a reminder, the IC50 is the concentration at which inhibition is half-maximal.
